Laboratory results taken from ChEMBL document CHEMBL3991601, “The target landscape of clinical kinase drugs” (Science, 2017).
Activity calls are given as the source filed them. Cut-off read from the data, not from the text of the source, for most assays here: actives have a measured Kd and inactives only a lower limit.

What follows are compounds tested against T1, Activin receptor type-1B (Homo sapiens, UniProt P36896).
T1 sequence (P36896 whole entry): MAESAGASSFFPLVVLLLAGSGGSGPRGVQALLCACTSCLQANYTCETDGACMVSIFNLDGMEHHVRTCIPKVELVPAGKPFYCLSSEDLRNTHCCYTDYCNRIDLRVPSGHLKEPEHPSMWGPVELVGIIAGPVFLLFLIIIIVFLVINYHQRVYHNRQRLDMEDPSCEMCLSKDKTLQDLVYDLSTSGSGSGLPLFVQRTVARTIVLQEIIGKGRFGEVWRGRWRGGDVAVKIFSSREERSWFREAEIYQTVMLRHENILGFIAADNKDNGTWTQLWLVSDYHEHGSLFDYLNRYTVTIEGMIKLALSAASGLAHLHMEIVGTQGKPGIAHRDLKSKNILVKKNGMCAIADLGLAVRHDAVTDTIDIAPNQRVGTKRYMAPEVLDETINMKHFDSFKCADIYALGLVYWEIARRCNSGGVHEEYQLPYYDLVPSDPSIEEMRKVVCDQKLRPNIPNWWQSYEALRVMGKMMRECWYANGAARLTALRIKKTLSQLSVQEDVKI
Note: in the data inactive means no Kd found up to 30 µM.

| SMILES | Kd |
| --- | --- |
| CNS(=O)(=O)Nc1nccc(Cc2c(C)c3ccc(Oc4ncccn4)cc3oc2=O)c1F [AVUTOMETINIB] | > 30 µM (inactive) |
| Cc1nc(N)sc1-c1ccnc(Nc2ccc(N3CCOCC3)cc2)n1 [CYC-116] | 1.27 µM (active) |
| CCc1cnn2c(NCc3ccc[n+]([O-])c3)cc(N3CCCC[C@H]3CCO)nc12 [DINACICLIB] | > 30 µM (inactive) |
| Cc1cc(Nc2cc(N3CCN(C)CC3)nc(/C=C/c3ccccc3)n2)n[nH]1 [ENMD-2076] | > 30 µM (inactive) |

Each compound was assayed against Serine/threonine-protein kinase MRCK alpha (Homo sapiens, UniProt Q5VT25).
Sequence of Serine/threonine-protein kinase MRCK alpha (Q5VT25 whole entry): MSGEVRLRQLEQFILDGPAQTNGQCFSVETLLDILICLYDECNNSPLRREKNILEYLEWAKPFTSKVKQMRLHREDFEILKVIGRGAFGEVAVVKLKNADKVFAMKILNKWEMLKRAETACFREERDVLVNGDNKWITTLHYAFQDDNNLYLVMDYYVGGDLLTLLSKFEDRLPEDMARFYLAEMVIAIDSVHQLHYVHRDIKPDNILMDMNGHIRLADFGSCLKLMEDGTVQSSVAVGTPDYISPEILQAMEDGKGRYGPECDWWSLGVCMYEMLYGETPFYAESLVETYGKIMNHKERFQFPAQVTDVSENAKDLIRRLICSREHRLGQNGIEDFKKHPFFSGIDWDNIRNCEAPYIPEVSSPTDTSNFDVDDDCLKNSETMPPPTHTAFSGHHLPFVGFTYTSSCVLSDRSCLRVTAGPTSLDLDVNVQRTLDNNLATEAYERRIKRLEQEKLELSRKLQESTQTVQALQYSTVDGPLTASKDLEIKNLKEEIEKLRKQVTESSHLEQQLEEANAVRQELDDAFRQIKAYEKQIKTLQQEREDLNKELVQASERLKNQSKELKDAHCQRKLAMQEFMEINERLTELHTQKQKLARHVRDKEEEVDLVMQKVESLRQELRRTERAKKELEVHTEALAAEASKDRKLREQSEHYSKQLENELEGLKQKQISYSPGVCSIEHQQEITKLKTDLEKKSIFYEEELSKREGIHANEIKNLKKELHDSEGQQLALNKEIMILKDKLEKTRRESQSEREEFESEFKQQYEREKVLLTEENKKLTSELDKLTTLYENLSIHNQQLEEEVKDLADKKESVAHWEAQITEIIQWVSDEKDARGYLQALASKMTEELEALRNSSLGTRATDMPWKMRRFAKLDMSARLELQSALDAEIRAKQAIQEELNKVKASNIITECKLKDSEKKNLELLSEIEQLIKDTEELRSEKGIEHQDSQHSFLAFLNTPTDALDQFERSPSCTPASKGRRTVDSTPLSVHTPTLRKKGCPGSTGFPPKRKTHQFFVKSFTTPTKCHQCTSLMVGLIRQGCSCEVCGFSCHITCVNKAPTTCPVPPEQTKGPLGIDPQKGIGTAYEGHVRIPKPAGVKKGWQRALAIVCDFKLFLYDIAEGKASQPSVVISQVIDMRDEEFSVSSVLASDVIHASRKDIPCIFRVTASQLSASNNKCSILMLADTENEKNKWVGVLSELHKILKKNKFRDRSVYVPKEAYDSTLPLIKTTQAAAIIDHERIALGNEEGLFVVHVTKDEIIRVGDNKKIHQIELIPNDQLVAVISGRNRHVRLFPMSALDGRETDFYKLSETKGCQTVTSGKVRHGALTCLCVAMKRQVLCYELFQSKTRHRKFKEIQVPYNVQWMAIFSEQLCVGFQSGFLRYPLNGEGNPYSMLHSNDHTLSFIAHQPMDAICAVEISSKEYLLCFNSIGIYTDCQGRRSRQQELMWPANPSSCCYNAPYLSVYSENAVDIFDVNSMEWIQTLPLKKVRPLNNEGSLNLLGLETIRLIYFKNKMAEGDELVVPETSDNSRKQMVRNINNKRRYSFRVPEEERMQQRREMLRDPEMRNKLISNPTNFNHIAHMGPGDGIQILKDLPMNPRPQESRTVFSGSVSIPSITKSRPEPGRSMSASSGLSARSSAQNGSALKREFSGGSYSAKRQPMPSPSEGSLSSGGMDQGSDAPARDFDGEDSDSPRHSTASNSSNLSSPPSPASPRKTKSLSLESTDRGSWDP

| SMILES | Kd |
| --- | --- |
| CNS(=O)(=O)Nc1nccc(Cc2c(C)c3ccc(Oc4ncccn4)cc3oc2=O)c1F [AVUTOMETINIB] | > 30 µM (inactive) |
| CCc1cnn2c(NCc3ccc[n+]([O-])c3)cc(N3CCCC[C@H]3CCO)nc12 [DINACICLIB] | > 30 µM (inactive) |

These compounds were tested against Casein kinase I isoform epsilon (Homo sapiens, UniProt P49674).
Sequence of Casein kinase I isoform epsilon (P49674 whole entry, canonical isoform): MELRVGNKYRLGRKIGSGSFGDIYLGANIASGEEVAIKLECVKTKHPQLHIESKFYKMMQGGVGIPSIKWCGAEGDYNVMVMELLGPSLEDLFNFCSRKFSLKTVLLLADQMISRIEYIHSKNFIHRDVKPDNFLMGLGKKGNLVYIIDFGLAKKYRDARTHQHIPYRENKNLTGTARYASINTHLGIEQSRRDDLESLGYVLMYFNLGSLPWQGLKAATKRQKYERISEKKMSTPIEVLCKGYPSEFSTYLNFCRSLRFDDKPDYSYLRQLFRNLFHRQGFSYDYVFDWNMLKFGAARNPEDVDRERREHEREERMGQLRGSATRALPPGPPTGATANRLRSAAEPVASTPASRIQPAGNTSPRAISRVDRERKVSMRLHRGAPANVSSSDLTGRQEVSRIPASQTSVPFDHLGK

| SMILES | Kd |
| --- | --- |
| CNS(=O)(=O)Nc1nccc(Cc2c(C)c3ccc(Oc4ncccn4)cc3oc2=O)c1F [AVUTOMETINIB] | > 30 µM (inactive) |
| Cc1nc(N)sc1-c1ccnc(Nc2ccc(N3CCOCC3)cc2)n1 [CYC-116] | 0.841 µM (active) |
| CCc1cnn2c(NCc3ccc[n+]([O-])c3)cc(N3CCCC[C@H]3CCO)nc12 [DINACICLIB] | > 30 µM (inactive) |
| Cc1cc(Nc2cc(N3CCN(C)CC3)nc(/C=C/c3ccccc3)n2)n[nH]1 [ENMD-2076] | > 30 µM (inactive) |

The compounds below were run against Eukaryotic translation initiation factor 2-alpha kinase 1 (Homo sapiens, UniProt Q9BQI3).
Sequence of Eukaryotic translation initiation factor 2-alpha kinase 1 (Q9BQI3 whole entry): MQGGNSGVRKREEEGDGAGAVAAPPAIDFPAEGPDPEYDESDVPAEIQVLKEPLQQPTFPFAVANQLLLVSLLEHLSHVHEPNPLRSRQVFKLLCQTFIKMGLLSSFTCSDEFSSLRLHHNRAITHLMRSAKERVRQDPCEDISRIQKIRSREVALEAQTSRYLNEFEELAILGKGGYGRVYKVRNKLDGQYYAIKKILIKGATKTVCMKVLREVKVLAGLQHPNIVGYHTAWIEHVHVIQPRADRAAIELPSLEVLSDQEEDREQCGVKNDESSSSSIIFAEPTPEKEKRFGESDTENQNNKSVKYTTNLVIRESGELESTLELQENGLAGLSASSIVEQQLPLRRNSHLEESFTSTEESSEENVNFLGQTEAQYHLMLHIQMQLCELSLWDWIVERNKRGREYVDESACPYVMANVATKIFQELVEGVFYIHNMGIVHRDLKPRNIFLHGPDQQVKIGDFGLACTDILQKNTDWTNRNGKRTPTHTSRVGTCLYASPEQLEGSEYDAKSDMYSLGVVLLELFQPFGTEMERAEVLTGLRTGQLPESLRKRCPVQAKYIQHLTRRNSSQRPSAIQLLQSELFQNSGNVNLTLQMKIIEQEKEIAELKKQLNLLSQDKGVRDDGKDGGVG

| SMILES | Kd |
| --- | --- |
| CNS(=O)(=O)Nc1nccc(Cc2c(C)c3ccc(Oc4ncccn4)cc3oc2=O)c1F [AVUTOMETINIB] | > 30 µM (inactive) |
| Cc1nc(N)sc1-c1ccnc(Nc2ccc(N3CCOCC3)cc2)n1 [CYC-116] | > 30 µM (inactive) |
| CCc1cnn2c(NCc3ccc[n+]([O-])c3)cc(N3CCCC[C@H]3CCO)nc12 [DINACICLIB] | > 30 µM (inactive) |

What follows are compounds tested against Tyrosine-protein kinase FRK (Homo sapiens, UniProt P42685).
Sequence of Tyrosine-protein kinase FRK (P42685 whole entry): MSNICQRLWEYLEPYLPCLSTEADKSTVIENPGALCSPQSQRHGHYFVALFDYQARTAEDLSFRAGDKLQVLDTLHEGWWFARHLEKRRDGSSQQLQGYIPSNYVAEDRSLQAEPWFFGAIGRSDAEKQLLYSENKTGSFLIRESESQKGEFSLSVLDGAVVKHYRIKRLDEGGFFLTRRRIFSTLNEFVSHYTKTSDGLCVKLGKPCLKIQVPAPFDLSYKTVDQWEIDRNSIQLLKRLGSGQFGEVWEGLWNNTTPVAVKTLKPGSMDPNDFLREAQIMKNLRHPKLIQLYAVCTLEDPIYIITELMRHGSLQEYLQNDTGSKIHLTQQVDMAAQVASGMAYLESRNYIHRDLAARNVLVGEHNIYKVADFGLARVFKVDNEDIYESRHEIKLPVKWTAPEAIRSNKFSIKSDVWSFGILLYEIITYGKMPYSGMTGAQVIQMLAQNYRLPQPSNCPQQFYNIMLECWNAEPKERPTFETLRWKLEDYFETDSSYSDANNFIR

| SMILES | Kd |
| --- | --- |
| CNS(=O)(=O)Nc1nccc(Cc2c(C)c3ccc(Oc4ncccn4)cc3oc2=O)c1F [AVUTOMETINIB] | > 30 µM (inactive) |
| CCc1cnn2c(NCc3ccc[n+]([O-])c3)cc(N3CCCC[C@H]3CCO)nc12 [DINACICLIB] | > 30 µM (inactive) |

The compounds below were run against Dual specificity mitogen-activated protein kinase kinase 1 (Homo sapiens, UniProt Q02750).
Sequence of Dual specificity mitogen-activated protein kinase kinase 1 (Q02750 whole entry): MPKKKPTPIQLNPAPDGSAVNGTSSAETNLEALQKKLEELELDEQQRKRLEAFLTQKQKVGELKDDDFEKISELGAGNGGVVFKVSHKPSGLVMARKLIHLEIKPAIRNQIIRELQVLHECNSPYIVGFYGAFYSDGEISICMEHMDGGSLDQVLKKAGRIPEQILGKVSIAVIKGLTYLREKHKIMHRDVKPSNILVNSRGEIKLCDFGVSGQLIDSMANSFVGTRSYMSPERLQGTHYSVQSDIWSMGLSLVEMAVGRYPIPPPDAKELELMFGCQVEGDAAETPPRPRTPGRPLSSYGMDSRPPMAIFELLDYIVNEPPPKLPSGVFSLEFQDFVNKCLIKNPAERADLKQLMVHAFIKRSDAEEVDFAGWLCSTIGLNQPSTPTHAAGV

| SMILES | Kd |
| --- | --- |
| Cc1nc(N)sc1-c1ccnc(Nc2ccc(N3CCOCC3)cc2)n1 [CYC-116] | > 30 µM (inactive) |
| Cc1cc(Nc2cc(N3CCN(C)CC3)nc(/C=C/c3ccccc3)n2)n[nH]1 [ENMD-2076] | > 30 µM (inactive) |

Each compound was assayed against Mitogen-activated protein kinase 9 (Homo sapiens, UniProt P45984).

| SMILES | Kd |
| --- | --- |
| CNS(=O)(=O)Nc1nccc(Cc2c(C)c3ccc(Oc4ncccn4)cc3oc2=O)c1F [AVUTOMETINIB] | > 30 µM (inactive) |

What follows are compounds tested against NADH dehydrogenase [ubiquinone] 1 alpha subcomplex subunit 13 (Homo sapiens, UniProt Q9P0J0).
Sequence of NADH dehydrogenase [ubiquinone] 1 alpha subcomplex subunit 13 (Q9P0J0 whole entry, one chain of several): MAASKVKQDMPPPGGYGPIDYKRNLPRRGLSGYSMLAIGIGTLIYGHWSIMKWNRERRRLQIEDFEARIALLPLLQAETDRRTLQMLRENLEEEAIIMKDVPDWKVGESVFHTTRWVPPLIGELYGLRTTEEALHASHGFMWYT

| SMILES | Kd |
| --- | --- |
| Cc1nc(N)sc1-c1ccnc(Nc2ccc(N3CCOCC3)cc2)n1 [CYC-116] | > 30 µM (inactive) |
| CCc1cnn2c(NCc3ccc[n+]([O-])c3)cc(N3CCCC[C@H]3CCO)nc12 [DINACICLIB] | > 30 µM (inactive) |
| Cc1cc(Nc2cc(N3CCN(C)CC3)nc(/C=C/c3ccccc3)n2)n[nH]1 [ENMD-2076] | > 30 µM (inactive) |

What follows are compounds tested against T2, Serine/threonine-protein kinase NLK (Homo sapiens, UniProt Q9UBE8).
T2 sequence (Q9UBE8 whole entry): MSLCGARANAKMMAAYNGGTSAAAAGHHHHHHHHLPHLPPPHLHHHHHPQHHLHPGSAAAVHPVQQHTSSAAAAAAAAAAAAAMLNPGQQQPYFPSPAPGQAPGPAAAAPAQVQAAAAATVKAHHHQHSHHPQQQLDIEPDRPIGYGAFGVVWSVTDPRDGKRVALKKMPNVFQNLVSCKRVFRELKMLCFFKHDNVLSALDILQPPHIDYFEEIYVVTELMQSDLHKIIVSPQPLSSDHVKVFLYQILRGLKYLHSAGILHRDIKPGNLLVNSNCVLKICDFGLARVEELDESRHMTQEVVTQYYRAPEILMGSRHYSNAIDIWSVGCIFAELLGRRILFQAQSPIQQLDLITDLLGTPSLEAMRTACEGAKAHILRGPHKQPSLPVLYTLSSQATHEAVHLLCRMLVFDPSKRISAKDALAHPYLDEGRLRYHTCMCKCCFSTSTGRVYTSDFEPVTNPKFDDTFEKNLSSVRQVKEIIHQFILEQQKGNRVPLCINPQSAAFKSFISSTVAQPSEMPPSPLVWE

| SMILES | Kd |
| --- | --- |
| CNS(=O)(=O)Nc1nccc(Cc2c(C)c3ccc(Oc4ncccn4)cc3oc2=O)c1F [AVUTOMETINIB] | > 30 µM (inactive) |
| CCc1cnn2c(NCc3ccc[n+]([O-])c3)cc(N3CCCC[C@H]3CCO)nc12 [DINACICLIB] | > 30 µM (inactive) |
| Cc1cc(Nc2cc(N3CCN(C)CC3)nc(/C=C/c3ccccc3)n2)n[nH]1 [ENMD-2076] | > 30 µM (inactive) |

Each compound was assayed against Serine/threonine-protein kinase N1 (Homo sapiens, UniProt Q16512).
Sequence of Serine/threonine-protein kinase N1 (Q16512 whole entry): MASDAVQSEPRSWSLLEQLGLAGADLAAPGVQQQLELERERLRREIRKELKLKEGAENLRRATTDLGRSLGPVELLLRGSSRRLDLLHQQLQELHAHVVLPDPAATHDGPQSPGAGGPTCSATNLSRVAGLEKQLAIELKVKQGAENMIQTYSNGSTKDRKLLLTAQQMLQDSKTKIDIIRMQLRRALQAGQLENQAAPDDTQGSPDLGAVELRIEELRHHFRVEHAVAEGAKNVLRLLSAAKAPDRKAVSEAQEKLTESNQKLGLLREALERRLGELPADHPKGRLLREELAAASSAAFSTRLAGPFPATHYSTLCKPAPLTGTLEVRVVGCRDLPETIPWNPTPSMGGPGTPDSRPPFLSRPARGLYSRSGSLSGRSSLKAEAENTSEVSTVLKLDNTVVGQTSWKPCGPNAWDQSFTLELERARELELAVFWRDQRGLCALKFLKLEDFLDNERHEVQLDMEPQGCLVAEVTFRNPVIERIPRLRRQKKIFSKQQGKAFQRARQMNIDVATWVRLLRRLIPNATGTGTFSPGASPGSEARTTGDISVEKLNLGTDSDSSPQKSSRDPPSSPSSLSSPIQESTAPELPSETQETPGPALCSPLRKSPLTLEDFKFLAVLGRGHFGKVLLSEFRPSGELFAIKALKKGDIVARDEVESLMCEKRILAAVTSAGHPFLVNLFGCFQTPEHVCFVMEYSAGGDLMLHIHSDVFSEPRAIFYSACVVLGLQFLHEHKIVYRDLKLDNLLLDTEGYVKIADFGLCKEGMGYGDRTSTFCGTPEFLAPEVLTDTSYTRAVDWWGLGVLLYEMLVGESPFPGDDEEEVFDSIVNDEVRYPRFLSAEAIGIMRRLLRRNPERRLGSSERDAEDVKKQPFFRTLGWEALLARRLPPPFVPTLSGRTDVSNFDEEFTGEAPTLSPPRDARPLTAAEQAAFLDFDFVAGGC

| SMILES | Kd |
| --- | --- |
| CNS(=O)(=O)Nc1nccc(Cc2c(C)c3ccc(Oc4ncccn4)cc3oc2=O)c1F [AVUTOMETINIB] | > 30 µM (inactive) |
| Cc1nc(N)sc1-c1ccnc(Nc2ccc(N3CCOCC3)cc2)n1 [CYC-116] | 13.2 µM (active) |
| CCc1cnn2c(NCc3ccc[n+]([O-])c3)cc(N3CCCC[C@H]3CCO)nc12 [DINACICLIB] | > 30 µM (inactive) |
| Cc1cc(Nc2cc(N3CCN(C)CC3)nc(/C=C/c3ccccc3)n2)n[nH]1 [ENMD-2076] | > 30 µM (inactive) |

Each compound was assayed against T3, Septin-9 (Homo sapiens, UniProt Q9UHD8).
T3 sequence (Q9UHD8 whole entry): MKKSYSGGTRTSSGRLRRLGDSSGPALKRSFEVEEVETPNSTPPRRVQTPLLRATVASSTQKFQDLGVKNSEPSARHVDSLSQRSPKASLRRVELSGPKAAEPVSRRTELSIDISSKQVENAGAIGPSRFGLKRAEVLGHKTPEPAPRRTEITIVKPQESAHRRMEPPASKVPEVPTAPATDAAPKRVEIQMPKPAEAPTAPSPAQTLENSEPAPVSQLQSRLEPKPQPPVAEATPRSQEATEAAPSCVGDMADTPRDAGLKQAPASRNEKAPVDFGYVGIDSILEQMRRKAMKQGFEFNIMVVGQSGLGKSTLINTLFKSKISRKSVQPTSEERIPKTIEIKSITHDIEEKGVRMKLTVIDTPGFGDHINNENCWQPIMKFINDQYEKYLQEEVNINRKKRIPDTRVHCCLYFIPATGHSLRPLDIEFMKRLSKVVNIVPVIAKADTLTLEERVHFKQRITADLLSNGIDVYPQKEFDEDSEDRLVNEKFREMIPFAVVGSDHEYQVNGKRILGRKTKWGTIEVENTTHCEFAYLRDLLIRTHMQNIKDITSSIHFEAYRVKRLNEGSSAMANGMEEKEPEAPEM

| SMILES | Kd |
| --- | --- |
| CNS(=O)(=O)Nc1nccc(Cc2c(C)c3ccc(Oc4ncccn4)cc3oc2=O)c1F [AVUTOMETINIB] | > 30 µM (inactive) |
| Cc1nc(N)sc1-c1ccnc(Nc2ccc(N3CCOCC3)cc2)n1 [CYC-116] | > 30 µM (inactive) |
| CCc1cnn2c(NCc3ccc[n+]([O-])c3)cc(N3CCCC[C@H]3CCO)nc12 [DINACICLIB] | > 30 µM (inactive) |
| Cc1cc(Nc2cc(N3CCN(C)CC3)nc(/C=C/c3ccccc3)n2)n[nH]1 [ENMD-2076] | > 30 µM (inactive) |

The compounds below were run against Elongation factor Tu, mitochondrial (Homo sapiens, UniProt P49411).

| SMILES | Kd |
| --- | --- |
| CNS(=O)(=O)Nc1nccc(Cc2c(C)c3ccc(Oc4ncccn4)cc3oc2=O)c1F [AVUTOMETINIB] | > 30 µM (inactive) |
| Cc1nc(N)sc1-c1ccnc(Nc2ccc(N3CCOCC3)cc2)n1 [CYC-116] | > 30 µM (inactive) |
| CCc1cnn2c(NCc3ccc[n+]([O-])c3)cc(N3CCCC[C@H]3CCO)nc12 [DINACICLIB] | > 30 µM (inactive) |
| Cc1cc(Nc2cc(N3CCN(C)CC3)nc(/C=C/c3ccccc3)n2)n[nH]1 [ENMD-2076] | > 30 µM (inactive) |
